The target of one experiment is T1, Recombinant human NGF (Homo sapiens, UniProt P01138).
T1 construct: purchased Peprotech
Kind of experiment: Fluorous sugar-coated microplate direct binding assay, NGF. From the text:
(§1) An alternative strategy was also considered to study these molecular recognition events. This approach involved the non-covalent immobilization of the fluorinated hexamer 17 on microtiter plates (Figure 1). Fluorous-based microarrays for the investigation of carbohydrate-protein interactions have been previously developed. A C8F17 tail was employed for the noncovalent immobilization of sugar derivatives on fluorous coated glass slides. However, to the best of our knowledge, an experimental protocol to study the interactions between fluorous sugar-coated conventional microplates and proteins has not been published. […] Thus, we created a fluorinated surface ready for the immobilization of compound 17 through noncovalent fluorous-fluorous interactions. […] Then, the binding of the attached sugar 17 to growth factors was analyzed. Incubation with different concentrations of midkine, FGF-2 and NGF was carried out and the bound protein was detected by further incubations with the corresponding primary and fluorescently labelled secondary antibodies (see Materials and Methods). Finally, the fluorescence was recorded using a standard microplate reader. The observation of fluorescence signals confirmed the interaction between immobilized 17 and the protein at a particular concentration. […]
(§2) The fluorescence was read at 535 nm using a TRIAD multimode microplate reader (from Dynex). […]

The target in experiment [1] is T2, midkine (Homo sapiens, UniProt P21741).
T2 sequence (P21741 21-143): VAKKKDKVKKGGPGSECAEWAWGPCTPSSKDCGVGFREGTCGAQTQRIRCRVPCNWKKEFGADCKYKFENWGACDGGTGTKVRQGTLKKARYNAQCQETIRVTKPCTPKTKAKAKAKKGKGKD
Kind of experiment: Fluorous sugar-coated microplate direct binding assay, midkine. Further details: purchased Peprotech.
Text: as §1, §2

The target of experiment [2] is T3, FGF-2 (Homo sapiens, UniProt P09038). Put plainly: Fluorous sugar-coated microplate direct binding assay, FGF-2. Further details: purchased Peprotech.
Text: as §1, §2
Target sequence in this assay (P09038 135-288 limits assumed): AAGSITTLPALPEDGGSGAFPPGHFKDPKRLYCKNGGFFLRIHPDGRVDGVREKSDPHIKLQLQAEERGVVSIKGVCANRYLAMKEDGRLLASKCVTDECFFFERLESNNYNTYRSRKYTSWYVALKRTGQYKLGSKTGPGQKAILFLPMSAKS

In experiment [3] the target is T2, midkine. Put plainly: Fluorescence polarization (FP) competition experiment, midkine. The following applies: midkine 63 nM. It is filed as binding. From the text:
(§3) Thus, we initiated the study of the interactions between 17 and midkine, FGF-2 and NGF growth factors. First, we estimated the solution-phase binding affinities using our previously reported fluorescence polarization (FP) competition experiment (see Supplementary Materials). Briefly, we measured the ability of hexasaccharide 17 to compete with a fluorescent probe for protein binding. Thus, we calculated IC50 values as 17 concentration required for 50% inhibition. […] We also attempted to measure the binding of 17 to NGF.
(§4) Fluorescence polarization assays
(§5) In order to calculate IC 50 values, fluorescence polarization competition experiments were performed following our previously reported protocol. 1 Briefly, we recorded the fluorescence polarization from wells containing 20 µL of protein solution (midkine or FGF-2) and 10 µL of probe solution (a fluorescein labelled heparin-like hexasaccharide) in the presence of 10 µL of 17 solutions with different concentrations. 384-well microplates from Corning were used in these assays. After shaking in the dark for 5 min, the fluorescence polarization was measured using a TRIAD multimode microplate reader (from Dynex), with excitation and emission wavelengths of 485 and 535 nm, respectively. […]
(also on this page, place not known: r 2 Fluorescence Polarization (mP) r 2 Fluorescence Polarization (mP) r 2 Fluorescence Polarization (mP))
(In general: Polarisation of emitted light reports the rotation of a fluorescent probe.)

Experiment [4] addresses T3, FGF-2. Put plainly: Fluorescence polarization (FP) competition experiment, FGF-2. It is filed as binding. To be noted: solution FP competition with fluorescent heparin-like hexasaccharide probe (10 nM), FGF-2 97 nM; average ± SD of three independent experiments.
Text: as §3, §4, §5
Target sequence in this assay (P09038 143-288): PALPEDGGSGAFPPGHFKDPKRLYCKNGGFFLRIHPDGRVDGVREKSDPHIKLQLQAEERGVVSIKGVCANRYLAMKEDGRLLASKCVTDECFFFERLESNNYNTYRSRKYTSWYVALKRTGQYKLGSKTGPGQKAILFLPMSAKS
(also on this page, place not known: r 2 Fluorescence Polarization (mP) IC50 r 2 Fluorescence Polarization (mP) IC50 r 2 Fluorescence Polarization (mP))

Another experiment addresses T4, Concanavalin A (Canavalia ensiformis, UniProt P02866).
T4 construct: purchased Sigma
Put plainly: Sugar-coated microplate control with FITC-labelled Concanavalin A. It is filed as binding. The following applies: fluorescently labelled protein at 11 µM. The protocol:
(§6) Importantly, we performed a control experiment in which sugar 3, instead of hexamer 17, was immobilized on the fluorous-functionalized plate (see Supplementary Materials). […] In addition, wells coated with hexamer 17 were incubated with two fluorescently labelled non-GAG binding proteins, Concanavalin A and bovine serum albumin, at 11 µM concentration (see Supplementary Materials). Again, we observed no fluorescence signals from these wells.
(§7) 2. Control experiments using additional (irrelevant) proteins.
(§8) The wells of Nunc Immobilizer AminoTM 384 microtiter plates were functionalized with heptadecafluorononylamine linker and then filled with a solution of hexamer 17 as described in the Materials and Methods section of the main text. The resulting hexasaccharide 17-coated wells were ready to perform protein interaction studies. Blank wells were coated with the fluorous linker alone. […]
(§9) Finally, the fluorescence was read at 535 nm using a TRIAD multimode microplate reader (from Dynex). For each protein, the residual fluorescence intensities obtained from blank samples were subtracted from the sugar-coated well values. In Figure S4, we show the average fluorescence intensities of three replicates after incubation with BSA and ConA. For comparison purposes, we also display the fluorescence values obtained after incubation with a 375 nM solution of midkine (detected by antibody incubations). […]

For another experiment, the target named is T5, bovine serum albumin (Bos taurus, UniProt P02769).
T5 construct: purchased Sigma-Aldrich
T5 sequence (P02769 25-607): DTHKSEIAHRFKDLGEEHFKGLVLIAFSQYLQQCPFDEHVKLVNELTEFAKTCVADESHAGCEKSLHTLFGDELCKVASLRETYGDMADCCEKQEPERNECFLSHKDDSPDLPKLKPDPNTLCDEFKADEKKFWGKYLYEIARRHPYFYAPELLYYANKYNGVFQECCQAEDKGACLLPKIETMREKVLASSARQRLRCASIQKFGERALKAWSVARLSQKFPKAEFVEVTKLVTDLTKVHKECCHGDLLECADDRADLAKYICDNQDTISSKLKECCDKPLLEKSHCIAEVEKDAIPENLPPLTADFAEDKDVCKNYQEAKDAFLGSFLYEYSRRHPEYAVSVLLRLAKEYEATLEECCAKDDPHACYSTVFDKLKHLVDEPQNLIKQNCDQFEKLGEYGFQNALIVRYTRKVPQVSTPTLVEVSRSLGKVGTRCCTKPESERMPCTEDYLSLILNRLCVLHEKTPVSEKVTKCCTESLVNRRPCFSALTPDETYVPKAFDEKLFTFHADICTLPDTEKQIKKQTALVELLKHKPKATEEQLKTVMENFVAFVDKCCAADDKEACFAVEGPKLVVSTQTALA
Kind of experiment: Sugar-coated microplate control with FITC-labelled bovine serum albumin. To be noted: fluorescently labelled protein at 11 µM. It is filed as binding. The protocol: as §6, §7, §8, §9

The mark [5] stands for this setting: read-out: KD,surf, sugar immobilized on fluorous-functionalized microplate, one-site binding model.

The term IC50 denotes the concentration at which inhibition is half-maximal. As a reminder, the Kd is a measure of binding affinity in units of concentration.

Where “and” joins values, the source holds several entries; their conditions need not be identical. Equal values may be shown once. Entries after “also recorded” stand apart in the source; their conditions may differ. Read-outs that look alike come from different tables or passages of the source.

T1 sequence (P01138 122-241): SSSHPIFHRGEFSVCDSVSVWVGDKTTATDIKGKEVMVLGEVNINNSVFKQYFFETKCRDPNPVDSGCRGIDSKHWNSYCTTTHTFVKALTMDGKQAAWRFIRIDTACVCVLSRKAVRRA

For `COc1ccc(O[C@@H]2O[C@H](COC(=O)CCC(F)(F)C(F)(F)C(F)(F)C(F)(F)C(F)(F)C(F)(F)C(F)(F)C(F)(F)F)[C@@H](O)[C@H](OCc3ccccc3)[C@H]2OC(=O)c2ccccc2)cc1` [Compound 3], at Recombinant human NGF (control, sugar immobilized from 250 µM solution, 1.8 µM NGF), the “fluorescence signal / interaction of immobilized sugar with NGF” value was “did not significantly interact; also recorded: No fluorescence signals above background”. Moreover, the “fluorescence signal / interaction of immobilized sugar with midkine” value at midkine [1] (control, sugar immobilized from 250 µM solution, 375 nM midkine) is “did not significantly interact; also recorded: No fluorescence signals above background”. The “fluorescence signal / interaction of immobilized sugar with FGF-2” value at FGF-2 [2] (control, sugar immobilized from 250 µM solution, 387 nM FGF-2) was “did not significantly interact; also recorded: No fluorescence signals above background”.

Take `COc1ccc(OC2OC(COC(=O)CCC(F)(F)C(F)(F)C(F)(F)C(F)(F)C(F)(F)C(F)(F)C(F)(F)C(F)(F)F)C(OC3OC(COS(=O)(=O)O)C(OS(=O)(=O)O)C(OC4OC(COC(=O)C(C)(C)C)C(OC5OC(COS(=O)(=O)O)C(OS(=O)(=O)O)C(OC6OC(COC(=O)C(C)(C)C)C(OC7OC(COS(=O)(=O)O)C(OS(=O)(=O)O)C(OC(=O)CCC(C)=O)C7N7C(=O)c8ccccc8C7=O)C(OCc7ccccc7)C6OC(=O)c6ccccc6)C5N5C(=O)c6ccccc6C5=O)C(OCc5ccccc5)C4OC(=O)c4ccccc4)C3N3C(=O)c4ccccc4C3=O)C(OCc3ccccc3)C2OC(=O)c2ccccc2)cc1` (centres unmarked) [Compound 17]: the IC50 at midkine [3] (Figure S1, individual competition curves, probe 10 nM, read-out: IC50 (single independent experiment)) is 0.428 µM and 0.479 µM and 0.431 µM; at midkine [3] (solution FP competition with fluorescent heparin-like hexasaccharide probe (10 nM), average ± SD of three independent experiments, read-out: IC50), 0.45 ± 0.03 µM; on FGF-2 [4], 6.3 ± 1.6 µM. Further, the Kd came to 1.6 ± 0.4 µM on Recombinant human NGF (setting [5]), 0.016 ± 0.005 µM at midkine [1] (setting [5]) and 0.057 ± 0.01 µM at FGF-2 [2] (setting [5]). The “interaction of immobilized sugar with Concanavalin A” value at Concanavalin A is “did not interact”. In addition, at bovine serum albumin, the “interaction of immobilized sugar with bovine serum albumin” value is recorded as “did not interact”.

These data come from publication PMC6515340, “Synthesis of a Fluorous-Tagged Hexasaccharide and Interaction with Growth Factors Using Sugar-Coated Microplates” (Molecules, 2019).
